Molecular target: MAPK14 (human) (UniProt Q16539)
Test: Inhibition of MAPK14 Kinase Activity

MAPK14 (human), sequence (Q16539 whole entry, looked up): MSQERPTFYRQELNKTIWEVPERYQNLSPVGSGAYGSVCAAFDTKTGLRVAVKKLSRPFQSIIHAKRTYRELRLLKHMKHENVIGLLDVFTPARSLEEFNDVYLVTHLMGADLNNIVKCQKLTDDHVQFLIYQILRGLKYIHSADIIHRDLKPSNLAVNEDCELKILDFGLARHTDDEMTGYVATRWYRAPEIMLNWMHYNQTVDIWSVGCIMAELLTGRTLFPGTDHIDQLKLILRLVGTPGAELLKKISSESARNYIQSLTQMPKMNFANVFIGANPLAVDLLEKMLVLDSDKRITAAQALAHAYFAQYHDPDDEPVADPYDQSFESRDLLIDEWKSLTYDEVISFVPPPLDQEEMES

Compound	IC50
Cc1cc(F)ccc1-c1nc(NC(CO)CO)nc2c1ccc(=O)n2-c1ccccc1F	< 10 µM
O=c1ccc2c(-c3ccccc3F)nc(NC(CO)CO)nc2n1-c1c(F)cccc1F	< 10 µM
Cc1cc(F)ccc1-c1nc(OCCN)nc2c1ccc(=O)n2-c1c(F)cccc1F	< 10 µM
Cc1cc(F)ccc1-c1nc(NCCO)nc2c1ccc(=O)n2C(C)C	< 10 µM
O=c1ccc2c(-c3ccccc3Cl)nc(NC3CCNCC3)nc2n1-c1ccccc1Cl	< 10 µM
CC(CO)(CO)Nc1nc(-c2ccccc2Cl)c2ccc(=O)n(-c3ccccc3Cl)c2n1	< 10 µM
Cc1cc(F)ccc1-c1nc(NC(CO)CO)nc2c1ccc(=O)n2C1CC1	< 10 µM
Cc1cc(F)ccc1-c1nc(NCCNS(C)(=O)=O)nc2c1ccc(=O)n2-c1c(F)cccc1F	< 10 µM
Cc1cc(F)ccc1-c1nc(NCC(=O)NC2CC2)nc2c1ccc(=O)n2-c1c(F)cccc1F	< 10 µM
CSc1nc(-c2ccc(F)cc2C)c2ccc(=O)n(C3CC3)c2n1	< 10 µM
Cc1cc(F)ccc1-c1nc(NC2CCCCC2)nc2c1ccc(=O)n2-c1c(F)cccc1F	< 10 µM
CCC(CC)n1c(=O)ccc2c(-c3ccccc3Cl)nc(N[C@H](C)CO)nc21	< 10 µM
Cc1cc(F)ccc1-c1nc(NC(C)(CO)CO)nc2c1ccc(=O)n2-c1ccccc1C	< 10 µM
O=c1ccc2c(-c3ccccc3Cl)nc(OCCO)nc2n1-c1ccccc1Cl	< 10 µM
CCOc1nc(-c2ccc(F)cc2C)c2ccc(=O)n(C3CCCCC3)c2n1	< 10 µM
CSc1nc(-c2ccccc2F)c2ccc(=O)n(C)c2n1	< 10 µM
CSc1nc(-c2ccccc2Cl)c2ccc(=O)n(-c3ccccc3Cl)c2n1	< 10 µM
CCn1c(=O)ccc2c(-c3ccccc3F)nc(SC)nc21	< 10 µM
CCNC(=O)NCCNc1nc(-c2ccc(F)cc2C)c2ccc(=O)n(-c3c(F)cccc3F)c2n1	< 10 µM
Cc1cc(F)ccc1-c1nc(NCCC(=N)NO)nc2c1ccc(=O)n2-c1c(F)cccc1F	< 10 µM
COc1nc(-c2ccc(F)cc2C)c2ccc(=O)n(-c3c(F)cccc3F)c2n1	< 10 µM
COC(=O)CNc1nc(-c2ccc(F)cc2C)c2ccc(=O)n(-c3c(F)cccc3F)c2n1	< 10 µM
Cc1cc(F)ccc1-c1nc(NCCNC(=O)CNC(=O)OC(C)(C)C)nc2c1ccc(=O)n2-c1c(F)cccc1F	< 10 µM
Cc1cc(F)ccc1-c1nc(OCC(CO)CO)nc2c1ccc(=O)n2-c1c(F)cccc1F	< 10 µM
Cc1cc(F)ccc1-c1nc(NCC2CCCO2)nc2c1ccc(=O)n2-c1c(F)cccc1F (centres undefined)	< 10 µM

Compound	IC50
CCC(CC)n1c(=O)ccc2c(-c3ccccc3Cl)nc(NC3CCN(C)CC3)nc21	< 10 µM
CCC(C)n1c(=O)ccc2c(-c3ccc(F)cc3C)nc(SC)nc21 (centres undefined)	< 10 µM
Cc1cc(F)ccc1-c1nc(NCC(=O)N2CCNC(=O)C2)nc2c1ccc(=O)n2-c1c(F)cccc1F	< 10 µM
Cc1cc(F)ccc1-c1nc(NCc2nnn[nH]2)nc2c1ccc(=O)n2-c1c(F)cccc1F	< 10 µM
Cc1cc(F)ccc1-c1nc(OCCCS(C)(=O)=O)nc2c1ccc(=O)n2-c1c(F)cccc1F	< 10 µM
Cc1cc(F)ccc1-c1nc(Nc2nc[nH]n2)nc2c1ccc(=O)n2-c1c(F)cccc1F	< 10 µM
CSc1nc(-c2ccc(F)cc2C)c2ccc(=O)n(-c3c(C)cccc3C)c2n1	< 10 µM
CSCCCNc1nc(-c2ccc(F)cc2C)c2ccc(=O)n(-c3c(F)cccc3F)c2n1	< 10 µM
CCC(CC)n1c(=O)ccc2c(-c3ccccc3Cl)nc(NCCO)nc21	< 10 µM
CSc1nc(-c2ccccc2F)c2ccc(=O)n(-c3c(F)cccc3F)c2n1	< 10 µM
CC(=O)NCCOc1nc(-c2ccc(F)cc2C)c2ccc(=O)n(-c3c(F)cccc3F)c2n1	< 10 µM
O=c1ccc2c(-c3ccccc3F)nc(NC(CO)CO)nc2n1CC1CC1	< 10 µM
Cc1cc(F)ccc1-c1nc(N[C@@H]2CCC[C@@H]2C(N)=O)nc2c1ccc(=O)n2-c1c(F)cccc1F	< 10 µM
Cc1cc(F)ccc1-c1nc(N[C@H]2CC[C@H](O)CC2)nc2c1ccc(=O)n2-c1ccccc1C	< 10 µM
Cc1cc(F)ccc1-c1nc(OCCNS(C)(=O)=O)nc2c1ccc(=O)n2-c1c(F)cccc1F	< 10 µM
CSCCCOc1nc(-c2ccc(F)cc2C)c2ccc(=O)n(-c3c(F)cccc3F)c2n1	< 10 µM
Cc1cc(F)ccc1-c1nc(NC(=O)C2CC2)nc2c1ccc(=O)n2-c1c(F)cccc1F	< 10 µM
NCCNc1nc(-c2ccccc2Cl)c2ccc(=O)n(-c3ccccc3Cl)c2n1	< 10 µM
Cc1cc(F)ccc1-c1nc(N[C@H]2CCC[C@@H]2O)nc2c1ccc(=O)n2-c1c(F)cccc1F	< 10 µM
Cc1cc(F)ccc1-c1nc(NCC(=O)N(C)C)nc2c1ccc(=O)n2-c1c(F)cccc1F	< 10 µM
Cc1cc(F)ccc1-c1nc(N(C)S(C)(=O)=O)nc2c1ccc(=O)n2C(C)C	< 10 µM
Cc1cc(F)ccc1-c1nc(N[C@@H](C)CO)nc2c1ccc(=O)n2-c1c(F)cccc1F	< 10 µM
CCOC(=O)CNc1nc(-c2ccccc2Cl)c2ccc(=O)n(-c3ccccc3Cl)c2n1	< 10 µM
CN(C)CCNc1nc(-c2ccccc2Cl)c2ccc(=O)n(-c3ccccc3Cl)c2n1	< 10 µM
Cc1cc(F)ccc1-c1nc(O)nc2c1ccc(=O)n2-c1ccccc1F	< 10 µM

Compound	IC50
Cc1cc(F)ccc1-c1nc(NCCNC(=O)Nc2cccc(F)c2)nc2c1ccc(=O)n2-c1c(F)cccc1F	< 10 µM
Cc1cc(F)ccc1-c1nc(NCC2CCS(=O)(=O)C2)nc2c1ccc(=O)n2-c1c(F)cccc1F (centres undefined)	< 10 µM
Cc1cc(F)ccc1-c1nc(NCCC#N)nc2c1ccc(=O)n2-c1c(F)cccc1F	< 10 µM
Cc1cc(F)ccc1-c1nc(N(C(=O)C2CC2)C(=O)C2CC2)nc2c1ccc(=O)n2-c1c(F)cccc1F	< 10 µM
Cc1cc(F)ccc1-c1nc(NC2CCCCC2)nc2c1ccc(=O)n2-c1ccccc1F	< 10 µM
Cc1cc(F)ccc1-c1nc(NC2CCCCC2)nc2c1ccc(=O)n2-c1ccccc1C	< 10 µM
CCNc1nc(-c2ccc(F)cc2C)c2ccc(=O)n(-c3c(F)cccc3F)c2n1	< 10 µM
Cc1cc(F)ccc1-c1nc(NC(C)(C)CO)nc2c1ccc(=O)n2-c1ccccc1C	< 10 µM
CCC(C)n1c(=O)ccc2c(-c3ccc(F)cc3C)nc(NC(CO)CO)nc21 (centres undefined)	< 10 µM
Cc1cc(F)ccc1-c1nc(NCCO)nc2c1ccc(=O)n2-c1c(F)cccc1F	< 10 µM
Cc1cc(F)ccc1-c1nc(NCC(N)=O)nc2c1ccc(=O)n2-c1c(F)cccc1F	< 10 µM
Cc1cc(F)ccc1-c1nc(NCC(C)(C)C)nc2c1ccc(=O)n2-c1ccccc1F	< 10 µM
CSc1nc(Cl)c(C=O)c(NC2CCCCC2)n1	< 10 µM
Cc1cc(F)ccc1-c1nc(N(C)CCO)nc2c1ccc(=O)n2-c1c(F)cccc1F	< 10 µM
Cc1cc(F)ccc1-c1nc(NC[C@H](C)O)nc2c1ccc(=O)n2-c1c(F)cccc1F	< 10 µM
CCC(CC)n1c(=O)ccc2c(-c3ccccc3Cl)nc(NCCN)nc21	< 10 µM
O=C(O)CNc1nc(-c2ccccc2Cl)c2ccc(=O)n(-c3ccccc3Cl)c2n1	< 10 µM
COc1nc(-c2ccccc2F)c2ccc(=O)n(-c3ccccc3Cl)c2n1	< 10 µM
Cc1cc(F)ccc1-c1nc(S(C)(=O)=O)nc2c1ccc(=O)n2-c1ccccc1C	< 10 µM
Cc1cc(F)ccc1-c1nc(NC[C@H](C)O)nc2c1ccc(=O)n2-c1ccccc1C	< 10 µM
Cc1cc(F)ccc1-c1nc(O)nc2c1ccc(=O)n2-c1c(F)cccc1F	< 10 µM
CCONc1nc(-c2ccc(F)cc2C)c2ccc(=O)n(-c3ccccc3F)c2n1	< 10 µM
CS(=O)(=O)Nc1nc(-c2ccccc2F)c2ccc(=O)n(-c3c(F)cccc3F)c2n1	< 10 µM
Cc1cc(F)ccc1-c1nc(NCCO)nc2c1ccc(=O)n2-c1ccccc1F	< 10 µM
Cc1cc(F)ccc1-c1nc(NCCNC(=O)NC2CCCCC2)nc2c1ccc(=O)n2-c1c(F)cccc1F	< 10 µM

Compound	IC50
Cc1cc(F)ccc1-c1nc(NC[C@H](C)O)nc2c1ccc(=O)n2-c1ccccc1F	< 10 µM
COc1nc(-c2ccccc2Cl)c2ccc(=O)n(-c3ccccc3Cl)c2n1	< 10 µM
CC(C)n1c(=O)ccc2c(-c3ccccc3F)nc(NC(CO)CO)nc21	< 10 µM
CCNc1nc(-c2ccc(F)cc2C)c2ccc(=O)n(-c3ccccc3F)c2n1	< 10 µM
Cc1cc(F)ccc1-c1nc(NCCNC(=O)CN)nc2c1ccc(=O)n2-c1c(F)cccc1F	< 10 µM
Cc1cc(F)ccc1-c1nc(NCC(=O)N2CC(O)C2)nc2c1ccc(=O)n2-c1c(F)cccc1F	< 10 µM
Cc1cc(F)ccc1-c1nc(NC[C@@H](C)O)nc2c1ccc(=O)n2-c1ccccc1F	< 10 µM
Cc1cc(F)ccc1-c1nc(NCC(F)(F)F)nc2c1ccc(=O)n2-c1ccccc1C	< 10 µM
Cc1cc(F)ccc1-c1nc(NC[C@@H](C)O)nc2c1ccc(=O)n2-c1ccccc1C	< 10 µM
Cc1cc(F)ccc1-c1nc(NC2CCC(O)CC2)nc2c1ccc(=O)n2-c1ccccc1F (centres undefined)	< 10 µM
CSc1nc(-c2ccc(F)cc2C)c2ccc(=O)n(C3CCCCC3)c2n1	< 10 µM
Cc1cc(F)ccc1-c1nc(NC2CCN(C)CC2)nc2c1ccc(=O)n2-c1c(F)cccc1F	< 10 µM
Cc1cc(F)ccc1-c1nc(NCC(=O)N2CCCC2)nc2c1ccc(=O)n2-c1c(F)cccc1F	< 10 µM
CNc1nc(-c2ccc(F)cc2C)c2ccc(=O)n(-c3c(F)cccc3F)c2n1	< 10 µM
Cc1cc(F)ccc1-c1nc(NC[C@@H](C)O)nc2c1ccc(=O)n2C1CCCCC1	< 10 µM
CN1CCC(Nc2nc(-c3ccccc3Cl)c3ccc(=O)n(-c4ccccc4Cl)c3n2)CC1	< 10 µM
Cc1cc(F)ccc1-c1nc(NCCCS(C)(=O)=O)nc2c1ccc(=O)n2-c1c(F)cccc1F	< 10 µM
Cc1cc(F)ccc1-c1nc(NCCO)nc2c1ccc(=O)n2-c1c(C)cccc1C	< 10 µM
CSc1nc(-c2ccccc2F)c2ccc(=O)n(CC3CC3)c2n1	< 10 µM
CS(=O)(=O)c1nc(-c2ccccc2)c2ccc(=O)n(-c3ccccc3)c2n1	< 10 µM
CCN(CC)CCNc1nc(-c2ccccc2F)c2ccc(=O)n(-c3ccccc3Cl)c2n1	< 10 µM
CSc1nc(-c2ccc(F)cc2C)c2c(n1)N(c1c(F)cccc1F)C(=O)CC2	< 10 µM
CS(=O)(=O)Nc1nc(-c2ccccc2)c2ccc(=O)n(-c3ccccc3)c2n1	< 10 µM
CSc1nc(-c2ccc(F)cc2C)c2ccc(=O)n(-c3ccccc3C)c2n1	< 10 µM

Reference: the Kinase Knowledgebase extract (Sharma et al. 2016)
